Experimental data from patent US7491794B2, “Macrocyclic compounds as inhibitors of viral replication” (Intermune, Inc., priority 2003, dated 2009).
pEC50, pIC50: −log10 of the molar value. Like-named read-outs stand apart in the source and are kept apart here.

Tests used:
NS3-NS4A protease = target: T1, NS3-NS4A protease (Hepatitis C virus genotype 1a, UniProt P27958); assay: NS3-NS4A protease assay (NS3 inhibition assay, RETS1 substrate), Section B; type: biochemical
T1 construct: Recombinant E. coli or Baculovirus full-length NS3 was diluted to 3.33 μM with assay buffer; made in house; host or cells: E. coli or baculovirus (BV) system
In short: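 Kinetic fluorescence read (335 nm excitation, 495 nm emission, 30 min) of RETS1 cleavage by NS3/NS4A-2 complex, 2 nM E. coli or 3 nM baculovirus NS3, after 10 min room-temperature compound pre-incubation. Four-parameter-fit IC50s converted to Ki by Cheng–Prusoff, Ki=IC50/(1+[S]/Km).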

[1] = test system: HCV sub-genomic replicon, GS4.3; assay: Quantitation by ELISA of NPTII in the HCV sub-genomic replicon, GS4.3, Section B; type: cell-based; settings: Hepatitis C virus; GS4.3 cells, 72 h incubation; read-out: Replicon EC50
In short: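 NPTII marker protein in lysates was quantified by ELISA read at 450 nm after 72 h inhibitor exposure (3-fold series, final DMSO 1%, G418-free medium) of HuH-7 cells stably harbouring the subgenomic HCV replicon. Values relative to DMSO-treated controls; 4-parameter curves gave EC50.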

T1 sequence (P27958 1027-1657): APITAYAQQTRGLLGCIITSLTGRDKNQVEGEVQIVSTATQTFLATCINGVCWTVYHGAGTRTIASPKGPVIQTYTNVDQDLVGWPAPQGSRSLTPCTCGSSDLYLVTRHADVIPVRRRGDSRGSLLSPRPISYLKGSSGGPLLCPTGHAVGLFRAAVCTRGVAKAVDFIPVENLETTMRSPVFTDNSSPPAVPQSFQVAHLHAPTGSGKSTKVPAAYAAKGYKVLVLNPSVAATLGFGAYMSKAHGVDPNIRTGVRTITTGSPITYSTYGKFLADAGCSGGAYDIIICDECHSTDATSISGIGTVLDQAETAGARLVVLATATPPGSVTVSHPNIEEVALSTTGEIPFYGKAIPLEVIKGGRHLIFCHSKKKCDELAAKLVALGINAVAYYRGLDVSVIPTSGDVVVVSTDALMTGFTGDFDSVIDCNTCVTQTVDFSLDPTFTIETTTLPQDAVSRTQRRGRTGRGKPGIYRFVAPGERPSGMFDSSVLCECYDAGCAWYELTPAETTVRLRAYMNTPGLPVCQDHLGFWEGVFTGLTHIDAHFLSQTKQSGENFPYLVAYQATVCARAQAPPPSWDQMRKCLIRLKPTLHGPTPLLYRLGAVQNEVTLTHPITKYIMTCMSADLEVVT

| SMILES | pIC50 (NS3-NS4A protease; read-out: NS3-NS4A IC50) | pEC50 [1] | pIC50 (NS3-NS4A protease) |
| --- | --- | --- | --- |
| CC(C)(C)OC(=O)N[C@H]1CCCCC/C=C\[C@@H]2C[C@@]2(C(=O)NS(=O)(=O)C2CC2)NC(=O)[C@@H]2C[C@@H](OC(=O)N3Cc4cccc(N)c4C3)CN2C1=O [AR00334385, (1S,4R,6S,14S,18R)-4-Amino-1,3-dihydro-isoindole-2-carboxylic acid 14-tert-butoxycarbonylamino-4-cyclopropanesulfonylaminocarbonyl-2,15-dioxo-3,16-diaza-tricyclo[14.3.0.0^4,6]nonadec-7-en-18-yl ester] | > 7.00 | > 7.00 |  |
| CC(C)(C)OC(=O)N[C@H]1CCCCC/C=C\[C@@H]2C[C@@]2(C(=O)NS(=O)(=O)C2CC2)NC(=O)[C@@H]2C[C@@H](OC(=O)N3Cc4c(F)ccc(F)c4C3)CN2C1=O [AR00334399, (1S,4R,6S,14S,18R)-4,7-Difluoro-1,3-dihydro-isoindole-2-carboxylic acid 14-tert-butoxycarbonylamino-4-cyclopropanesulfonylaminocarbonyl-2,15-dioxo-3,16-diaza-tricyclo[14.3.0.0^4,6]nonadec-7-en-18-yl ester] | > 7.00 | > 7.00 |  |
| CC(C)(C)NC(=O)N[C@H]1CCCCC/C=C\[C@@H]2C[C@@]2(C(=O)NS(=O)(=O)C2CC2)NC(=O)[C@@H]2C[C@@H](OC(=O)N3Cc4cccc(F)c4C3)CN2C1=O [AR00338066, (1S,4R,6S,14S,18R)-4-Fluoro-1,3-dihydro-isoindole-2-carboxylic acid 14-(3-tert-butyl-ureido)-4-cyclopropanesulfonylaminocarbonyl-2,15-dioxo-3,16-diaza-tricyclo[14.3.0.0^4,6]nonadec-7-en-18-yl ester] | > 7.00 | > 7.00 |  |
| CC(C)(C)CC(=O)N[C@H]1CCCCC/C=C\[C@@H]2C[C@@]2(C(=O)NS(=O)(=O)C2CC2)NC(=O)[C@@H]2C[C@@H](OC(=O)N3Cc4cccc(F)c4C3)CN2C1=O [AR00338070, (1S,4R,6S,14S,18R)-4-Fluoro-1,3-dihydro-isoindole-2-carboxylic acid 4-cyclopropanesulfonylaminocarbonyl-14-(3,3-dimethyl-butyrylamino)-2,15-dioxo-3,16-diaza-tricyclo[14.3.0.0^4,6]nonadec-7-en-18-yl ester] | > 7.00 | > 7.00 |  |
| O=C(CCC(F)(F)F)N[C@H]1CCCCC/C=C\[C@@H]2C[C@@]2(C(=O)NS(=O)(=O)C2CC2)NC(=O)[C@@H]2C[C@@H](OC(=O)N3Cc4cccc(F)c4C3)CN2C1=O [AR00338071, (1S,4R,6S,14S,18R)-4-Fluoro-1,3-dihydro-isoindole-2-carboxylic acid 4-cyclopropanesulfonylaminocarbonyl-2,15-dioxo-14-(4,4,4-trifluoro-butyrylamino)-3,16-diaza-tricyclo[14.3.0.0^4,6]nonadec-7-en-18-yl ester] | > 7.00 | > 7.00 |  |
| CC(=O)N[C@H](C(=O)N[C@H]1CCCCC/C=C\[C@@H]2C[C@@]2(C(=O)NS(=O)(=O)C2CC2)NC(=O)[C@@H]2C[C@@H](OC(=O)N3Cc4cccc(F)c4C3)CN2C1=O)C1CCCCC1 [AR00340122, (1S,4R,6S,14S,18R)-4-Fluoro-1,3-dihydro-isoindole-2-carboxylic acid 14-(2-acetylamino-2-cyclohexyl-acetylamino)-4-cyclopropanesulfonylaminocarbonyl-2,15-dioxo-3,16-diaza-tricyclo[14.3.0.0^4,6]nonadec-7-en-18-yl ester] |  | > 6.00 | > 7.00 |
| COc1ccc(CC(=O)N[C@H]2CCCCC/C=C\[C@@H]3C[C@@]3(C(=O)NS(=O)(=O)C3CC3)NC(=O)[C@@H]3C[C@@H](OC(=O)N4Cc5cccc(F)c5C4)CN3C2=O)cc1 [AR00340156, (1S,4R,6S,14S,18R)-4-Fluoro-1,3-dihydro-isoindole-2-carboxylic acid 4-cyclopropanesulfonylaminocarbonyl-14-[2-(4-methoxy-phenyl)-acetylamino]-2,15-dioxo-3,16-diaza-tricyclo[14.3.0.0^4,6]nonadec-7-en-18-yl ester] | > 7.00 | > 6.00 |  |
| CC(C)(C)OC(=O)N[C@H]1CCCCC/C=C\[C@@H]2C[C@@]2(C(=O)NS(=O)(=O)c2ccc(Cl)s2)NC(=O)[C@@H]2C[C@@H](OC(=O)N3Cc4ccc(Cl)cc4C3)CN2C1=O [AR00340173, (1S,4R,6S,14S,18R)-5-Chloro-1,3-dihydro-isoindole-2-carboxylic acid 14-tert-butoxycarbonylamino-4-(5-chloro-thiophene-2-sulfonylaminocarbonyl)-2,15-dioxo-3,16-diaza-tricyclo[14.3.0.0^4,6]nonadec-7-en-18-yl ester] | > 7.00 | > 5.00 |  |
| COc1cccc(CC(=O)N[C@H]2CCCCC/C=C\[C@@H]3C[C@@]3(C(=O)NS(=O)(=O)C3CC3)NC(=O)[C@@H]3C[C@@H](OC(=O)N4Cc5cccc(F)c5C4)CN3C2=O)c1 [AR00340178, (1S,4R,6S,14S,18R)-4-Fluoro-1,3-dihydro-isoindole-2-carboxylic acid 4-cyclopropanesulfonylaminocarbonyl-14-[2-(3-methoxy-phenyl)-acetylamino]-2,15-dioxo-3,16-diaza-tricyclo[14.3.0.0^4,6]nonadec-7-en-18-yl ester] | > 7.00 | > 7.00 |  |
| O=C(Cc1ccccc1)N[C@H]1CCCCC/C=C\[C@@H]2C[C@@]2(C(=O)NS(=O)(=O)C2CC2)NC(=O)[C@@H]2C[C@@H](OC(=O)N3Cc4cccc(F)c4C3)CN2C1=O [AR00340188, (1S,4R,6S,14S,18R)-4-Fluoro-1,3-dihydro-isoindole-2-carboxylic acid 4-cyclopropanesulfonylaminocarbonyl-2,15-dioxo-14-phenylacetylamino-3,16-diaza-tricyclo[14.3.0.0^4,6]nonadec-7-en-18-yl ester] | > 7.00 | > 6.00 |  |
| O=C(N[C@H](C(=O)N[C@H]1CCCCC/C=C\[C@@H]2C[C@@]2(C(=O)NS(=O)(=O)C2CC2)NC(=O)[C@@H]2C[C@@H](OC(=O)N3Cc4cccc(F)c4C3)CN2C1=O)C1CCCCC1)c1cnccn1 [AR00340303, (1S,4R,6S,14S,18R)-4-Fluoro-1,3-dihydro-isoindole-2-carboxylic acid 14-{2-cyclohexyl-2-[(pyrazine-2-carbonyl)-amino]-acetylamino}-4-cyclopropanesulfonylaminocarbonyl-2,15-dioxo-3,16-diaza-tricyclo[14.3.0.0^4,6]nonadec-7-en-18-yl ester] |  | > 6.00 | > 7.00 |
| CC(C)(C)OC(=O)N[C@H]1CCCCC/C=C\[C@@H]2C[C@@]2(C(=O)NS(=O)(=O)C(F)(F)F)NC(=O)[C@@H]2C[C@@H](OC(=O)N3Cc4ccccc4C3)CN2C1=O [AR00340479, (1S,4R,6S,14S,18R)-1,3-Dihydro-isoindole-2-carboxylic acid 14-tert-butoxycarbonylamino-2,15-dioxo-4-trifluoromethanesulfonylaminocarbonyl-3,16-diaza-tricyclo[14.3.0.0^4,6]nonadec-7-en-18-yl ester] | > 7.00 | > 7.00 |  |
| CC(C)(C)OC(=O)N[C@H]1CCCCC/C=C\[C@@H]2C[C@@]2(C(=O)NS(=O)(=O)C2CC2)NC(=O)[C@@H]2C[C@@H](OC(=O)N3Cc4ccc(N5CCOCC5)cc4C3)CN2C1=O [AR00340494, (1S,4R,6S,14S,18R)-5-Morpholin-4-yl-1,3-dihydro-isoindole-2-carboxylic acid 14-tert-butoxycarbonylamino-4-cyclopropanesulfonylaminocarbonyl-2,15-dioxo-3,16-diaza-tricyclo[14.3.0.0^4,6]nonadec-7-en-18-yl ester] | > 7.00 | > 7.00 |  |
| CN1CCN(c2ccc3c(c2)CN(C(=O)O[C@@H]2C[C@H]4C(=O)N[C@]5(C(=O)NS(=O)(=O)C6CC6)C[C@H]5/C=C\CCCCC[C@H](NC(=O)OC(C)(C)C)C(=O)N4C2)C3)CC1 [AR00340495, (1S,4R,6S,14S,18R)-5-(4-Methyl-piperazin-1-yl)-1,3-dihydro-isoindole-2-carboxylic acid 14-tert-butoxycarbonylamino-4-cyclopropanesulfonylaminocarbonyl-2,15-dioxo-3,16-diaza-tricyclo[14.3.0.0^4,6]nonadec-7-en-18-yl ester] | > 7.00 | > 7.00 |  |
| CC(C)(C)OC(=O)N[C@H]1CCCCC/C=C\[C@@H]2C[C@@]2(C(=O)NS(=O)(=O)C2CC2)NC(=O)[C@@H]2C[C@@H](OC(=O)N3Cc4ccc(Br)cc4C3)CN2C1=O [AR00340526, (1S,4R,6S,14S,18R)-5-Bromo-1,3-dihydro-isoindole-2-carboxylic acid 14-tert-butoxycarbonylamino-4-cyclopropanesulfonylaminocarbonyl-2,15-dioxo-3,16-diaza-tricyclo[14.3.0.0^4,6]nonadec-7-en-18-yl ester] | > 7.00 | > 7.00 |  |
| CC(C)Nc1ccc2c(c1)CN(C(=O)O[C@@H]1C[C@H]3C(=O)N[C@]4(C(=O)NS(=O)(=O)C5CC5)C[C@H]4/C=C\CCCCC[C@H](NC(=O)OC(C)(C)C)C(=O)N3C1)C2 [AR00341649, (1S,4R,6S,14S,18R)-5-Isopropylamino-1,3-dihydro-isoindole-2-carboxylic acid 14-tert-butoxycarbonylamino-4-cyclopropanesulfonylaminocarbonyl-2,15-dioxo-3,16-diaza-tricyclo[14.3.0.0^4,6]nonadec-7-en-18-yl ester] | > 7.00 | > 7.00 |  |
